In brackets after ≈: the same amount, converted by molar mass. Like-named read-outs stand apart in the source and are kept apart here.
What was measured:
Format in all cases: physicochemical
[1] = Hygroscopicity measurements (DVS sorption/desorption profiles); settings: 25° C.
Procedure: The sorption/desorption profiles of the forms of the present invention were tested at 25° C. under 0-90% relative humidity. The forms of the present invention were classified according to the following criteria: Deliquescent: Sufficient water is absorbed to form a liquid. […] Hygroscopic: Increase in mass is less than 15% and equal to or greater than 2%. Slightly hygroscopic: Increase in mass is less than 2% and equal to or greater than 0.2%. Non-hygroscopic: Increase in mass is less than 0.2%.

[2] = Aqueous solubility measurements; settings: for solubility at 24 h: 25 °C, thermodynamic from solid, read-out: HPLC solubility; for pH: final pH of saturated solution
Procedure: Testing media: water, pH 1.2, 4.5, 6.8, 7.4 USP buffers, 0.01 N HCl, 0.1 N HCl, SGF, FaSSIF, FeSSIF.
The various testing media were prepared as follows:
pH 1.2 (USP): 50 mL of 0.2 M potassium chloride solution were placed in a 200 mL volumetric flask to which 85.0 mL of 0.2M hydrochloric acid solution were added followed by the addition of water to obtain the required volume.
pH 4.5 (USP): 50 mL of 0.2 M potassium biphthalate solution were placed in a 200 mL volumetric flask to which 8.8 mL of 0.2 M sodium hydroxide solution were added followed by the addition of water to obtain the required volume.
pH 6.8 (USP): 50 mL of 0.2 M monobasic potassium phosphate solution were placed in a 200 mL volumetric flask to which 22.4 mL of 0.2 M sodium hydroxide solution were added followed by the addition of water to obtain the required volume.
pH 7.4 (USP): 50 mL of 0.2 M monobasic potassium phosphate solution were placed in a 200 mL volumetric flask to which 39.1 mL of 0.2 M sodium hydroxide solution were added followed by the addition of water to obtain the required volume.
Simulated gastric fluid (SGF): 0.01 N HCl, 0.05% sodium lauryl sulfate, and 0.2% NaCl.
Fasted state simulated intestinal fluid (FaSSIF): 29 mM NaH2PO4, 3 mM Na taurocholate, 0.75 mM lecithin, 103 mM NaCl, and NaOH to obtain pH 6.5.
Fed state simulated intestinal fluid (FeSSIF): 144 mM acetic acid, 15 mM Na taurocholate, 3.75 mM lecithin, 204 mM NaCl, and NaOH to obtain pH 5.0.
Testing procedure: The tested febuxostat form was placed in each of the different media and was kept shaken for 24 hours at 25° C. Then, the saturated solution was filtered. The concentration of the febuxostat form in filtrate was determined by HPLC. The final pH was then tested. The test was conducted in duplication.

[3] = Bulk and tapped density measurements
Procedure: Bulk density testing: A febuxostat form in an amount which is sufficient to complete the test was passed through a 1.0 mm (No. 18) screen to break up agglomerates that may have formed during storage. The febuxostat form was then weighed (M) and the powder was added into a 10 mL graduated cylinder. The powder was carefully leveled without compacting, and the unsettled apparent volume, Vo, was read. The bulk density, in g per mL, was calculated by the formula: Bulk Density=M/Vo Tapped density testing: A febuxostat form in an amount which is sufficient to complete the test was passed through a 1.0 mm (No. 18) screen to break up agglomerates that may have formed during storage. The febuxostat form was then weighed and the powder was added into a 10 mL graduated cylinder. The powder was carefully leveled without compacting. The cylinder was tapped 500 times initially and the tapped volume, Va, was measured to the nearest graduated unit. The tapping was then repeated for additional 750 times and the tapped volume, Vb, was measured to the nearest graduated unit. If the difference between the two volumes was less than 2%, Vb was taken as the final tapped volume, Vf. The tapped density, in g per mL, was calculated by the formula: Tapped Density=M/Vf

[4] = media 0.01N HCl, 24 hours at 25° C.
[5] = media 0.1N HCl, 24 hours at 25° C.
[6] = media FaSSIF, 24 hours at 25° C.
[7] = media FeSSIF, 24 hours at 25° C.
[8] = media pH 1.2 (USP), 24 hours at 25° C.
[9] = media pH 4.5 (USP), 24 hours at 25° C.
[10] = media pH 6.8 (USP), 24 hours at 25° C.
[11] = media pH 7.4 (USP), 24 hours at 25° C.
[12] = media water, 24 hours at 25° C.

## Cc1nc(-c2ccc(OCC(C)C)c(C#N)c2)sc1C(=O)O [Form G of U.S. Pat. No. 6,225,474, 2-(3-cyano-4-isobutoxyphenyl)-4-methyl-5-thiazolecarboxylic acid, reference compound]
[1]; Target % P/P0 0.0
  Change in Mass (%) - ref, Desorption: −0.013%
  Change in Mass (%) - ref, Sorption: 0.000%
[1]; Target % P/P0 10.0
  Change in Mass (%) - ref, Desorption: 1.323%
  Change in Mass (%) - ref, Hysteresis: 0.241%
  Change in Mass (%) - ref, Sorption: 1.082%
[1]; Target % P/P0 20.0
  Change in Mass (%) - ref, Desorption: 1.540%
  Change in Mass (%) - ref, Hysteresis: 0.215%
  Change in Mass (%) - ref, Sorption: 1.326%
[1]; Target % P/P0 30.0
  Change in Mass (%) - ref, Desorption: 1.692%
  Change in Mass (%) - ref, Hysteresis: 0.219%
  Change in Mass (%) - ref, Sorption: 1.473%
[1]; Target % P/P0 40.0
  Change in Mass (%) - ref, Desorption: 1.806%
  Change in Mass (%) - ref, Hysteresis: 0.181%
  Change in Mass (%) - ref, Sorption: 1.625%
[1]; Target % P/P0 50.0
  Change in Mass (%) - ref, Desorption: 1.923%
  Change in Mass (%) - ref, Hysteresis: 0.173%
  Change in Mass (%) - ref, Sorption: 1.750%
[1]; Target % P/P0 60.0
  Change in Mass (%) - ref, Desorption: 2.074%
  Change in Mass (%) - ref, Hysteresis: 0.158%
  Change in Mass (%) - ref, Sorption: 1.915%
[1]; Target % P/P0 70.0
  Change in Mass (%) - ref, Desorption: 2.229%
  Change in Mass (%) - ref, Hysteresis: 0.119%
  Change in Mass (%) - ref, Sorption: 2.109%
[1]; Target % P/P0 80.0
  Change in Mass (%) - ref, Desorption: 2.420%
  Change in Mass (%) - ref, Hysteresis: 0.078%
  Change in Mass (%) - ref, Sorption: 2.342%
[1]; Target % P/P0 90.0
  Change in Mass (%) - ref, Desorption: 2.776%
  Change in Mass (%) - ref, Sorption: 2.776%
[2]; FaSSIF, pH 6.5, fassif, media FaSSIF, 24 hours at 25° C.
  solubility at 24 h: 448 µg/mL (≈ 1420 µM)
[2]; FeSSIF, pH 5, fessif, media FeSSIF, 24 hours at 25° C.
  solubility at 24 h: 132 µg/mL (≈ 418 µM)
[2]; [4]
  pH: 1.987
  Visual solubility: few particles
[2]; [5]
  pH: 0.945
  Visual solubility: few particles
[2]; [6]
  pH: 6.384
  Visual solubility: Turbid + few particles
[2]; [7]
  pH: 4.965
  Visual solubility: Turbid + few particles
[2]; media SGF, 24 hours at 25° C.
  pH: 2.118
  Visual solubility: few particles
[2]; [8]
  pH: 1.089
  Visual solubility: few particles
[2]; [9]
  pH: 4.469
  HPLC solubility: 0.11 µg/mL
  Visual solubility: few particles
[2]; [10]
  pH: 6.686
  HPLC solubility: 764.90 µg/mL
  Visual solubility: Turbid + few particles
[2]; [11]
  pH: 6.985
  Visual solubility: Slightly Turbid + few
[2]; media water, shaken 24 hours at 25° C.
  pH: 8.416
[2]; [12]
  HPLC solubility: 29.80 µg/mL
  Visual solubility: Turbid + few particles
[2]; pH 7.4 USP buffer, pH 7.4, aqueous buffer, media pH 7.4 (USP), 24 hours at 25° C.
  solubility at 24 h: 3330 µg/mL (≈ 10500 µM)
[3]
  Bulk Density: 0.376 g/mL
  Tapped Density: 0.511 g/mL

Source: patent US20130225830A1, “POLYMORPHS OF FEBUXOSTAT” (MAPI PHARMA LIMITED, priority 2010, published 2013)
